Data set [1] can be described thus: Determination of brain to plasma ratio in rat. Format: in vivo. The settings on record: brain and plasma, female Sprague Dawley rats, read-out: Brain/Plasma Ratio of compound in Rat. The protocol: Brain to plasma ratios are estimated in female Sprague Dawley rats. The compound is dissolved in water or another appropriate vehicle. For determination of brain to plasma ratio the compound is administrated as a subcutaneous, or an intravenous bolus injection, or an intravenous infusion, or an oral administration. At a predetermined time point after the administration a blood sample is taken with cardiac puncture. The rat is terminated by cutting the heart open, and the brain is immediately retained. The blood samples are collected in heparinized tubes and centrifuged within 30 minutes, in order to separate the plasma from the blood cells. The plasma is transferred to 96-well plates and stored at −20° C. until analysis. The brains are divided in half, and each half is placed in a pre-tarred tube and stored at −20° C. until analysis. Prior to the analysis, the brain samples are thawed and 3 ml/g brain tissue of distilled water is added to the tubes. The brain samples are sonicated in an ice bath until the samples are homogenized. Both brain and plasma samples are precipitated with acetonitrile. After centrifugation, the supernatant is diluted with 0.2% formic acid. […] After reconstitution of the residuals the samples are ready for injection onto the HPLC column.

The next data set has as its target T1, human mGluR5d (Homo sapiens, UniProt P41594).
T1 construct: expressed in transfected cells
Description: FLIPR assay: functional assessment of mGluR5 antagonism (intracellular calcium mobilization). Format: cell-based. The settings on record: cells expressing human mGluR5d; read-out: FLIPR hmGluR5d. The source says: The properties of the compounds of the invention can be analyzed using standard assays for pharmacological activity. Examples of glutamate receptor assays are well known in the art as described in for example Aramori et al., Neuron 8:757 (1992), Tanabe et al., Neuron 8:169 (1992), Miller et al., J. Neuroscience 15:6103 (1995), Balazs, et al., J. Neurochemistry 69:151 (1997). The methodology described in these publications is incorporated herein by reference. Conveniently, the compounds of the invention can be studied by means of an assay (FLIPR) that measures the mobilization of intracellular calcium, [Ca^2+]i in cells expressing mGluR5 or another assay (IP3) that measures inositol phosphate turnover.
Cells expressing human mGluR5d as described in WO97/05252 are seeded at a density of 100,000 cells per well on collagen coated clear bottom 96-well plates with black sides and experiments are done 24 h following seeding. […] The fluorescence signal is sampled 50 times at 1 second intervals followed by 3 samples at 5 second intervals immediately after each of the two additions. Responses are measured as the difference between the peak height of the response to agonist, less the background fluorescence within the sample period. […]

T1 sequence (P41594 21-942 isoform P41594-3 limits assumed): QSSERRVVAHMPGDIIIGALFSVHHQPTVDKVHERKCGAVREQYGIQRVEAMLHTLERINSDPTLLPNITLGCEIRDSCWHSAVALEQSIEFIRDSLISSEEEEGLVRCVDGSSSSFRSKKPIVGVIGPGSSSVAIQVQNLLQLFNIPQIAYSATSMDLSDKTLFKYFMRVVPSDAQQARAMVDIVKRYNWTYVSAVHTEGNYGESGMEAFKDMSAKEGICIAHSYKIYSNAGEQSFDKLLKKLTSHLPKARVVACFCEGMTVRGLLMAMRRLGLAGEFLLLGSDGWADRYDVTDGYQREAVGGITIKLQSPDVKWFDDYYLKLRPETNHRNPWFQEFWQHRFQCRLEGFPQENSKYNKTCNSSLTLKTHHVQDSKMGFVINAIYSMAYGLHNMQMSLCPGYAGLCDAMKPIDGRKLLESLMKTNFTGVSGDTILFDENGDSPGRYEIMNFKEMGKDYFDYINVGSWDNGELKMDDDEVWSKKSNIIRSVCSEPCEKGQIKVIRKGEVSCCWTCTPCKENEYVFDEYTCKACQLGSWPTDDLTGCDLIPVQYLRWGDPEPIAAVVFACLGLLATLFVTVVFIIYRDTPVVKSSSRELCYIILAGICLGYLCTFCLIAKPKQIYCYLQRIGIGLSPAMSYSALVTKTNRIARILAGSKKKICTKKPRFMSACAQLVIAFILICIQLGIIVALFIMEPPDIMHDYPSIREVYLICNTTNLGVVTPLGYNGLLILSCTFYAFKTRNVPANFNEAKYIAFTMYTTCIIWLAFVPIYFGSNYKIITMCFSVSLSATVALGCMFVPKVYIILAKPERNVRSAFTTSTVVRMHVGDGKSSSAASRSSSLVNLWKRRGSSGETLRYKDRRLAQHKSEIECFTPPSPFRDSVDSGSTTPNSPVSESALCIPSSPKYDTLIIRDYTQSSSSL

Consider `COc1cc(-c2nnc(N3CCC[C@@H]3c3nnn(-c4cccc(C#N)c4)n3)n2C)ccn1` [Example 15.3, 3-(5-{(R)-1-[5-(2-Methoxy-pyridin-4-yl)-4-methyl-4H-[1,2,4]triazol-3-yl]-pyrrolidin-2-yl}-tetrazol-2-yl)-benzonitrile], for which the Kp in data set [1] is 0.13. Further, at human mGluR5d, the IC50 was 50 nM.
Turning to `Cc1cc(-c2nnc(N3CCC[C@@H]3c3nnn(-c4cccc(Cl)c4)n3)n2C)ccn1` [Example 15.1, 4-(5-{(R)-2-[2-(3-Chloro-phenyl)-2H-tetrazol-5-yl]-pyrrolidin-1-yl}-4-methyl-4H-[1,2,4]triazol-3-yl)-2-methyl-pyridine], in data set [1], the Kp is 0.27. The IC50 on human mGluR5d came to 11 nM.

The record behind these values is patent US20070259926A1, “mGluR5 modulators III” (AstraZeneca AB, priority 2006, published 2007).
